Reference: US7279336B2, “Methods and compositions for enhanced plant cell transformation” (priority 2002, dated 2007)

Legend:
maize immature embryos = experiment: Maize transformation experiments with control or histone H2A-1 T-DNA binary vector, with or without anti-oxidant; format: cell-based
Description: 2. Kan Wang at the Plant Transformation Facility, Iowa State University tested for the present invention in two different Agrobacterium strains. One contains a T-DNA binary vector with a herbicide resistance gene in the T-DNA (this is the control construction)1. The other strain contains a similar T-DAN binary vector, but in addition to the herbicide resistance gene the T-DNA contains the Arabidopsis histone H2A-1 cDNA under the control of maize adh1 promoter and intron. These strains were used in four rounds of maize transformation experiments. […] Several thousand transformations (using the control vector without the histone gene) produced virtually no transformants. In these experiments, there were no transformants (using the control strain) without L-cysteine.

Japonica rice explants = details: 80 mg/L Cys; cited from earlier work
[1] = system: immature zygotic embryos of the maize hybrid line Hi II; experiment: Agrobacterium tumefaciens (EHA101, standard binary vector pTF102) transformation of maize Hi II immature zygotic embryos
Description: A. tumefaciens strain EHA101 (Hood et al., 1986) containing the standard binary vector pTF102 (12.1 kb) was used in all experiments. […] This vector system, pTF 102 in EHA 101, was maintained on yeast extract peptone (YEP) medium (An et al., 1988) containing 100 mg/L spectinomycin (for pTF102) and 50 mg/L kanamycin (for EHA101). Bacteria cultures for weekly experiments were initiated from stock plates that were stored for up to 1 month at 4° C. before being refreshed from long-term, 80° C. glycerol stocks. In all experiments, bacteria cell densities were adjusted to an optical density (OD550) between 0.35 to 0.45 using a spectrophotometer immediately before embryo infection.
F2 immature zygotic embryos (1.5-2.0 mm) of the maize (Zea mays) Hi II hybrid genotype (Armstrong et al., 1991) were aseptically dissected from greenhouse-grown ears harvested 10 to 13 d post pollination. Ears were stored up to 3 d at 4° C. before dissection.
Infection, cocultivation, resting, and selection media were after Zhao et al. (1999) except that cocultivation medium was modified to contain Cys. All these media contained N6 salts and vitamins (Chu et al., 1975), 1.5 mg/L 2,4-dichlorophenoxyacetic acid, and 0.7 g L1 L-Pro in addition to the following ingredients: infection medium contained 68.4 g/L Suc and 36 g/L Glc (pH 5.2) and was supplemented with 100 μM AS (Sigma, St. Louis) before use; cocultivation medium contained 30 g/L Suc, 0.85 mg/L silver nitrate, 100 μM AS, and 3 g/L gelrite (pH 5.8); resting medium contained 30 g/L Suc, 0.5 g/L MES, 0.85 mg/L silver nitrate, 250 mg/L cefotaxime, and 8 g/L purified agar (pH 5.8). Selection medium was identical to resting medium with the addition of 1.5 or 3 mg/L bialaphos (Shinyo Sanyo, Tokyo). Infection medium was filter sterilized, whereas all other media were autoclaved. AS stock solutions (100 mM) were prepared by dissolving AS in 100% (v/v) dimethyl sulfoxide (DMSO) to make a 200 mM stock which was then diluted (1:1 [v/v]) with sterile water and stored in small aliquots at 20° C. Cys was added to cocultivation medium after autoclaving from freshly prepared, filter-sterilized stocks (100 mg/mL) and cocultivation medium was used within 2 to 5 d of preparation. Regeneration I medium contained Murashige and Skoog salts and vitamins (Murashige and Skoog, 1962), 60 g/L Suc, 100 mg/L myo-inositol, no hormones, and 3 g/L gelrite (pH 5.8) after Armstrong and Green (1985). Cefotaxime (250 mg/L) and bialaphos (3 mg/L) were added to this medium after autoclaving. Regeneration II medium differed from medium I in that it contained 30 g/L Suc and no bialaphos.

Q: For `N[C@@H](CS)C(=O)O` [L-cysteine], which “infected immature embryos giving transformants” value (maize immature embryos; control vector without histone gene, with L-cysteine, no transformants without L-cysteine) is on record?
A: 2-3%

Q: And the transformation (maize immature embryos; histone gene vector and L-cysteine)?
A: 2-3%

Q: And the impact on embryogenesis (Japonica rice explants)?
A: negative impact

Q: What about the “T-DNA delivery to embryogenic-competent scutellum cells of infected embryos” value ([1]; 400 mg/L Cys in cocultivation medium) of the same compound?
A: increased

Q: And the stable transformation rates ([1]; Cys as low as 100 mg/L, compared with 400 mg/L, better embryo recovery)?
A: Comparable

Q: What about the “transient glucuronidase expression in targeted cells” value ([1]; L-cysteine in cocultivation medium, 400 mg/L) of the same compound?
A: improvement

Q: What about the “embryo response after cocultivation” value ([1]; L-cysteine in cocultivation medium, 400 mg/L vs 0 mg/L) of the same compound?
A: decrease
